Reference: patent US20250073255A1, “USE OF FA-TYPE LIPID COMPOUNDS IN PREPARATION OF NUCLEIC ACID DELIVERY REAGENT AND RELATED PRODUCT” (BEIJING BAISHIKANG PHARMACEUTICAL TECHNOLOGY (BSJPHARMA) …, priority 2021, published 2025)

Tested on: C57BL/6 male mice
Test: In vivo delivery study of lipid nucleic acid mixture (oral gavage, RT-qPCR of PGY-sRNA-26 in tissues)
Design: species or system mouse
Settings: 100 μg lipid:10 nmol PGY-sRNA-26, sampled after 12 hours; for oral delivery of single-stranded sRNA nucleic acids into mouse heart tissue: vs free uptake group; for oral delivery of single-stranded sRNA nucleic acids into mouse intestinal tissue: intestine; for oral delivery of single-stranded sRNA nucleic acids into mouse pancreatic tissue: pancreas
Outline: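 Stem-loop RT and SYBR qPCR, normalized to U6, measured PGY-sRNA-26 in blood and organs 12 h after gavage. Dosing was 10 nmol sRNA with 100 μg lipid, pre-mixed and heated 15 min at 90 °C, in 12-h-fasted mice, against saline and free-sRNA groups.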

CCCCCC/C=C\CCCCCCCC(=O)OCCCCCCCCCCCCCCCCCCCCCCC [Lipid 825, tricosyl (Z)-hexadec-9-enoate]
can effectively orally deliver: oral delivery of single-stranded sRNA nucleic acids into mouse blood | oral delivery of single-stranded sRNA nucleic acids into mouse brain tissue | oral delivery of single-stranded sRNA nucleic acids into mouse femur | oral delivery of single-stranded sRNA nucleic acids into mouse heart tissue | oral delivery of single-stranded sRNA nucleic acids into mouse intestinal tissue | oral delivery of single-stranded sRNA nucleic acids into mouse kidney tissue | oral delivery of single-stranded sRNA nucleic acids into mouse liver tissue | oral delivery of single-stranded sRNA nucleic acids into mouse lung tissue | oral delivery of single-stranded sRNA nucleic acids into mouse pancreatic tissue | oral delivery of single-stranded sRNA nucleic acids into mouse spleen tissue | oral delivery of single-stranded sRNA nucleic acids into mouse stomach tissue

CCCCC/C=C\C/C=C\C/C=C\C/C=C\CCCC(=O)Nc1ccc(S(N)(=O)=O)cc1 [Lipid 826, (5Z,8Z,11Z,14Z)-N-(4-sulfamoylphenyl)icosa-5,8,11,14-tetraenamide]
can effectively orally deliver: oral delivery of single-stranded sRNA nucleic acids into mouse blood | oral delivery of single-stranded sRNA nucleic acids into mouse brain tissue | oral delivery of single-stranded sRNA nucleic acids into mouse femur | oral delivery of single-stranded sRNA nucleic acids into mouse heart tissue | oral delivery of single-stranded sRNA nucleic acids into mouse intestinal tissue | oral delivery of single-stranded sRNA nucleic acids into mouse kidney tissue | oral delivery of single-stranded sRNA nucleic acids into mouse liver tissue | oral delivery of single-stranded sRNA nucleic acids into mouse lung tissue | oral delivery of single-stranded sRNA nucleic acids into mouse pancreatic tissue | oral delivery of single-stranded sRNA nucleic acids into mouse spleen tissue | oral delivery of single-stranded sRNA nucleic acids into mouse stomach tissue

CCCCCC/C=C\CCCCCCCC(=O)OC(CC)C(C)CCC (stereo not drawn) [Lipid 827, 4-methylheptan-3-yl (Z)-hexadec-9-enoate]
can effectively orally deliver: oral delivery of single-stranded sRNA nucleic acids into mouse blood | oral delivery of single-stranded sRNA nucleic acids into mouse brain tissue | oral delivery of single-stranded sRNA nucleic acids into mouse femur | oral delivery of single-stranded sRNA nucleic acids into mouse heart tissue | oral delivery of single-stranded sRNA nucleic acids into mouse intestinal tissue | oral delivery of single-stranded sRNA nucleic acids into mouse kidney tissue | oral delivery of single-stranded sRNA nucleic acids into mouse liver tissue | oral delivery of single-stranded sRNA nucleic acids into mouse lung tissue | oral delivery of single-stranded sRNA nucleic acids into mouse pancreatic tissue | oral delivery of single-stranded sRNA nucleic acids into mouse spleen tissue | oral delivery of single-stranded sRNA nucleic acids into mouse stomach tissue

CCCCC/C=C\C/C=C\CCCCCCCC(=O)OC(CC)C(C)CCC (stereo not drawn) [Lipid 828, 4-methylheptan-3-yl (9Z,12Z)-octadeca-9,12-dienoate]
can effectively orally deliver: oral delivery of single-stranded sRNA nucleic acids into mouse blood | oral delivery of single-stranded sRNA nucleic acids into mouse brain tissue | oral delivery of single-stranded sRNA nucleic acids into mouse femur | oral delivery of single-stranded sRNA nucleic acids into mouse heart tissue | oral delivery of single-stranded sRNA nucleic acids into mouse intestinal tissue | oral delivery of single-stranded sRNA nucleic acids into mouse kidney tissue | oral delivery of single-stranded sRNA nucleic acids into mouse liver tissue | oral delivery of single-stranded sRNA nucleic acids into mouse lung tissue | oral delivery of single-stranded sRNA nucleic acids into mouse pancreatic tissue | oral delivery of single-stranded sRNA nucleic acids into mouse spleen tissue | oral delivery of single-stranded sRNA nucleic acids into mouse stomach tissue

CCCCCCCCCCCCCC(=O)OCCCCCCCCCCCCCCC(C)C [Lipid 829, 15-methylhexadecyl tetradecanoate]
can effectively orally deliver: oral delivery of single-stranded sRNA nucleic acids into mouse blood | oral delivery of single-stranded sRNA nucleic acids into mouse brain tissue | oral delivery of single-stranded sRNA nucleic acids into mouse femur | oral delivery of single-stranded sRNA nucleic acids into mouse heart tissue | oral delivery of single-stranded sRNA nucleic acids into mouse intestinal tissue | oral delivery of single-stranded sRNA nucleic acids into mouse kidney tissue | oral delivery of single-stranded sRNA nucleic acids into mouse liver tissue | oral delivery of single-stranded sRNA nucleic acids into mouse lung tissue | oral delivery of single-stranded sRNA nucleic acids into mouse pancreatic tissue | oral delivery of single-stranded sRNA nucleic acids into mouse spleen tissue | oral delivery of single-stranded sRNA nucleic acids into mouse stomach tissue

CCCCCCCCCCCCCCCCCC(=O)N[C@@H](Cc1ccccc1)C(=O)O [Lipid 830, (2S)-2-(octadecanoylamino)-3-phenylpropanoic acid]
can effectively orally deliver: oral delivery of single-stranded sRNA nucleic acids into mouse blood | oral delivery of single-stranded sRNA nucleic acids into mouse brain tissue | oral delivery of single-stranded sRNA nucleic acids into mouse femur | oral delivery of single-stranded sRNA nucleic acids into mouse heart tissue | oral delivery of single-stranded sRNA nucleic acids into mouse intestinal tissue | oral delivery of single-stranded sRNA nucleic acids into mouse kidney tissue | oral delivery of single-stranded sRNA nucleic acids into mouse liver tissue | oral delivery of single-stranded sRNA nucleic acids into mouse lung tissue | oral delivery of single-stranded sRNA nucleic acids into mouse pancreatic tissue | oral delivery of single-stranded sRNA nucleic acids into mouse spleen tissue | oral delivery of single-stranded sRNA nucleic acids into mouse stomach tissue
